# Measurements as given in US20160115540A1, “PRODRUGS AND DRUGS” (Biogen MA Inc., priority 2013, published 2016).
# Counter-ions that a name gives are not always drawn.
# Assays:
# [1] = system: striatum; test: Transcriptional profiling on Affymetrix GeneChips, single dose, naïve mice: striatum; type: in vivo, C57BL/6 mice; details: for Number of differentially expressed genes identified: Striatum: Naïve, Single Dose; for differentially expressed genes: 100DMF-vs-100MMF
# Procedure: (§1) Treated mice were sacrificed at 2, 7, or 12 hours. Tissues (liver, spleen, kidney, jejunum, cortex, hippocampus, striatum and whole blood) were collected and analyzed by transcriptional profiling on mouse Affymetrix GeneChips.
# (§2) Tissues (liver, spleen, kidney, jejunum, cortex, hippocampus, striatum and whole blood) were collected and analyzed by transcriptional profiling on mouse Affymetrix GeneChips.
# (§3) Animals were exposed to CO2 and whole blood collected via cardiac puncture. Two 100 μl aliquots of whole blood were collected in 1.5 mL microcentrifuge tubes and snap frozen in liquid nitrogen. Peripheral (liver, spleen, kidney and jejunum) and CNS brain (cerebellum, hippocampus, striatum and cortex) tissues were harvested and snap frozen in liquid nitrogen, with special care taken to collect tissues of similar size and from the same location. All samples were stored at −80° C. until RNA extraction was conducted.
# (§4) For RNA preparation, frozen tissues were placed in 2 mL RNAse-free 96-well blocks with 1.5 mL QIAzol Lysis Reagent (QIAgen) and a 3.2 mm stainless steel bead (BioSpec Products, Bartlesville, Okla.). Tissues were disrupted for four cycles of 45 seconds in a Mini-Beadbeater (Biospec Products). RNA was extracted in chloroform and the aqueous phase was mixed with an equal volume of 70% ethanol. Extracted RNA was applied to RNeasy 96 plates and purified by the spin method according to the manufacturer's protocol (RNeasy 96 Universal Tissue Protocol, QIAgen, Hilden Germany).
# (§5) Automated sample amplifications and biotin labelings were carried out using the NuGEN Ovation RNA Amplification system V2 (Cat #3100), Ovation WB reagent (Cat #1300) and Encore Biotin module (Cat #4200) (NuGEN Technologies, Inc, San Carlos, Calif.) according to manufacturer's recommendations using an Arrayplex automated liquid handler (Beckman Coulter, Indianapolis, Ind.). Two micrograms of biotin labeled sscDNA probe were hybridized to Affymetrix GeneChip Affymetrix HT_MG-430_PM plate arrays with modified conditions as described in Allaire et al. Washing and staining of the hybridized arrays were completed as described in the GeneChip Expression analysis technical manual for HT plate arrays using the Genechip® Array Station (Affymetrix, Santa Clara, Calif.) with modifications as described in Allaire et al. The processed GeneChip® plate arrays were scanned using GeneTitan scanner (Affymetrix, Santa Clara, Calif.).
# (§6) Affymetrix scans were subject to quality control (QC) measures. These tests included a visual inspection of the distribution of raw signal intensities and an assessment of RNA degradation, relative log expression (RLE), and normalized unsealed standard error (NUSE). All sample scans that passed these QC metrics were included in the analysis.
# (§7) All CEL files were subjected to GC-content-based Robust Multi-array Average (GCRMA) normalization (version 2.20.0) (Irizarry R A, et al. Nucleic Acids Res 2003; 31:e15; Li C, et al. Genome Biol 2001; 2:[…]0032). Expression levels were log (base 2) transformed.
# (§8) All calculations and analyses were carried out using R (version 2.11.1) and Bioconductor computational tools (Gentleman R. Springer Science+Business Media 2005).
# [2] = system: cortex; test: Transcriptional profiling on Affymetrix GeneChips, single dose, naïve mice: cortex; type: in vivo, C57BL/6 mice; details: for Number of differentially expressed genes identified: Cortex: Naïve, Single Dose
# Procedure: as §1, §2, §3, §4, §5, §6, §7, §8
# [3] = 100 mpk DMF-vs-100 mpk MMF, 2 h after last dosing
# [4] = 100 mpk DMF-vs-100 mpk MMF, 7 h after last dosing
# [5] = 100 mpk DMF-vs-100 mpk MMF, 12 h after last dosing
# [6] = 100 mpk, vs Vehicle, 2 h after last dosing
# [7] = 100 mpk, vs Vehicle, 7 h after last dosing
# [8] = 100 mpk, vs Vehicle, 12 h after last dosing
smiles,measurement,setting,value
"COC(=O)/C=C/C(=O)OC [DMF, dimethyl fumarate]",Number of differentially expressed genes identified: Striatum,[1]; [3],0
same,Number of differentially expressed genes identified: Striatum,[1]; [4],0
same,Number of differentially expressed genes identified: Striatum,[1]; [5],0
same,Number of differentially expressed genes identified: Striatum,[1]; [6],4
same,Number of differentially expressed genes identified: Striatum,[1]; [7],2
same,Number of differentially expressed genes identified: Striatum,[1]; [8],2
same,"Number of genes, DMF Only / MMF Only",[1]; Striatum,5
same,Gtpbp10 (1434030_PM_at) differential expression,"[1]; Striatum, 2 hr",−1.52
same,Kdm3b (1428320_PM_at) differential expression,"[1]; Striatum, 2 hr",−1.54
same,Mkln1 (1416734_PM_at) differential expression,"[1]; Striatum, 2 hr",−1.97
same,Ptprg (1456070_PM_at) differential expression,"[1]; Striatum, 2 hr",−1.54
same,Aox1 (1419435_PM_at) differential expression,"[1]; Striatum, 7 hr",1.64
same,Nfia (1438236_PM_at) differential expression,"[1]; Striatum, 12 hr",−1.53
same,Zeb2 (1422748_PM_at) differential expression,"[1]; Striatum, 12 hr",−1.66
same,differentially expressed genes,"[1]; striatum, 2 h",None
same,differentially expressed genes,"[1]; striatum, 7 h",None
same,differentially expressed genes,"[1]; striatum, 12 h",None
same,FC Gtpbp10 (1434030_PM_at),"[1]; striatum, 100DMF-vs-Veh, 2 h",−1.52
same,FC Kdm3b (1428320_PM_at),"[1]; striatum, 100DMF-vs-Veh, 2 h",−1.54
same,FC Mkln1 (1416734_PM_at),"[1]; striatum, 100DMF-vs-Veh, 2 h",−1.97
same,FC probe 1444791_PM_at,"[1]; striatum, 100DMF-vs-Veh, 2 h",−1.60
same,FC Aox1 (1419435_PM_at),"[1]; striatum, 100DMF-vs-Veh, 7 h",1.64
same,FC probe 1443353_PM_at,"[1]; striatum, 100DMF-vs-Veh, 7 h",−1.83
same,FC Nfia (1438236_PM_at),"[1]; striatum, 100DMF-vs-Veh, 12 h",−1.53
same,FC Zeb2 (1422748_PM_at),"[1]; striatum, 100DMF-vs-Veh, 12 h",−1.66
same,"Number of genes, DMF Only / MMF Only",[2]; Cortex,2
same,Fgfbp1 (1419086_PM_at) differential expression,"[2]; Cortex, 7 hr",1.54
same,Nqo1 (1423627_PM_at) differential expression,"[2]; Cortex, 7 hr",1.50
same,Number of differentially expressed genes identified: Cortex,[2]; [3],0
same,Number of differentially expressed genes identified: Cortex,[2]; [4],0
same,Number of differentially expressed genes identified: Cortex,[2]; [5],0
same,Number of differentially expressed genes identified: Cortex,[2]; [6],2
same,Number of differentially expressed genes identified: Cortex,[2]; [7],2
same,Number of differentially expressed genes identified: Cortex,[2]; [8],0
same,differentially expressed genes,"[2]; cortex, 100DMF-vs-100MMF, 2 h",None
same,differentially expressed genes,"[2]; cortex, 100DMF-vs-100MMF, 7 h",None
same,differentially expressed genes,"[2]; cortex, 100DMF-vs-100MMF, 12 h",None
same,FC AI314604 (1442075_PM_at),"[2]; cortex, 100DMF-vs-Veh, 2 h",1.57
same,FC Ciapin1 (1448140_PM_at),"[2]; cortex, 100DMF-vs-Veh, 2 h",1.55
same,FC Fgfbp1 1419086_PM_at,"[2]; cortex, 100DMF-vs-Veh, 7 h",1.54
same,FC Nqo1 (1423627_PM_at),"[2]; cortex, 100DMF-vs-Veh, 7 h",1.50
same,differentially expressed genes,"[2]; cortex, 100DMF-vs-Veh, 12 h",None
